Data on one molecule can be found in patent publication US7067476B2, “Peptide derivative, and pharmaceutically acceptable salt thereof, process for producing the same, and use thereof” (priority 2001, dated 2006).

Assay [1] deals with Lys-gingipain (KGP) (Porphyromonas gingivalis, UniProt B2RLK2). The experiment in a line: Inhibitory activity against Lys-gingipain (KGP), substrate Cbz-His-Glu-Lys-MCA. In kind it is biochemical. The note with it: read-out: Enzyme inhibitory activity (%) KGP. The method, then: (§1) The inhibitory activity against Lys-gingipain (KGP) was measured by the method of Abe et al. (Journal Biochemistry, 1998, Vol. 123, 305–312) using Cbz-His-Glu-Lys-MCA as a substrate. The inhibitory activity against Arg-gingipain (RGP) was measured by the method of Kadowaki et al. (Journal Biological Chemistry, 1994, Vol. 269, 21371–21378) using Cbz-Phe-Arg-MCA as a substrate. More specifically, the measurements were carried out in the following manner: 100 μl of 50 mM L-cystein, 200 μl of a 0.1 M sodium phosphate buffer solution (pH 7.5), 20 μl of 12.3 nM KGP or RGP solution containing 0.05% “Brij35” (a tradename, product of Aldrich, polyoxyethylene(23) lauryl ether), 80 μl of distilled water and 100 μl of a dimethyl sulfoxide solution of a compound according to the invention were mixed and preincubated at 37° C. for 5 minutes. Thereafter, 500 μl of a 0.1% dimethyl sulfoxide solution containing 20 μM Cbz-His-Glu-Lys-MCA (for KGP) or Cbz-Phe-Arg-MCA (for RGP) was added, followed by incubation at 40° C. for 10 minutes. An acetic acid buffer solution (pH 5.0) containing 10 mM iodoacetamide was then added to stop the enzyme reaction. The fluorescence intensity (F) at 460 nm upon excitation at 380 nm was measured.

Assay [2] relates to Arg-gingipain (RGP). The experiment in a line: Inhibitory activity against Arg-gingipain (RGP), substrate Cbz-Phe-Arg-MCA. Format: biochemical, Porphyromonas gingivalis. How it is done: as §1

`Cl.NCCCC[C@H](NC(=O)[C@H](CCC(=O)O)NC(=O)OCc1ccccc1)C(=O)C(=O)N[C@@H](CCCNC(N)=N[N+](=O)[O-])C(=O)C(=O)NCCc1ccccc1` [Example 3]: in assay [1], the inhibition at 1 µM worked out at 99.9%, the inhibition at 10 µM was determined as 99.9% and the inhibition at 100 µM is 100%. For the same molecule, in assay [2] (concentration 10^−4 mol/l), the “Enzyme inhibitory activity (%) RGP” value is reported as 99.4%. Moreover, the “Enzyme inhibitory activity (%) RGP” value in assay [2] (concentration 10^−5 mol/l) is recorded as 96.8%. The “Enzyme inhibitory activity (%) RGP” value in assay [2] (concentration 10^−6 mol/l) is reported as 81.1%.
